Data set [1] can be described thus: In vitro cytotoxicity by MTT assay, HEK 293. The class given is cell-based, human. Particulars: human, HEK 293 cells, read-out: % cytotoxicity (100 − % cell survival) of HEK 293 cell line. The procedure:
(§1) The cancer cell line cultures of HEK 293 ([…]), BT474 (breast cancer cell line) and NCI-H226 (lung cancer) were obtained from Pasteur Institute of India, Coonoor, India, and were cultured in RPMI-1640 and 10 % heat-[…] New born calf serum with antibiotics [penicillin ([…]), streptomycin (100 μg/mL) and amphotericin B (25 μg/mL)]. The cells were maintained at 37 °C in a humidified atmosphere with 5 % CO2 and were subcultured twice a week.
(§2) The monolayer cell culture (100 μL) was trypsinized, and the cell count was adjusted to […] using medium containing 10 % new born calf serum. To each well of the 96-well microtitre plate, the diluted cell suspension (approximately 10,000 cells) (0.1 mL) was added and kept for 24 h in incubator at 37 °C in 5 % CO2 atmosphere for cell monolayer formation. After 24 h, when a partial monolayer was formed at the bottom of the well, the supernatant was flicked off, the monolayer was washed once, and different drugs, i.e. synthesized compounds (100 μL), were added to the cells in microtitre plates. The plates were then incubated at 37 °C for 3 days in 5 % CO2 atmosphere, and microscopic examination was carried out and observations recorded every 24 h. After 72 h, the sample solution in the wells was flicked off; MTT dye ([…]) was added to each well; plates were gently shaken and incubated for 4 h at 37 °C in 5 % CO2 incubator. The supernatant was removed and propanol (50 μL) was added; the plates were gently shaken to solubilize the formed formazan. The absorbance was measured using a microplate reader at a wavelength of 490 nm (Edmondson et al., [1988]; Prasad et al., [2005]; Chiruvella et al., [2008]; Chang et al., [2007]).
(Tetrazolium dyes change colour on reduction, which living cells bring about.)

Data set [2] has as its system BT474 (breast cancer cell line). Description: In vitro cytotoxicity by MTT assay, BT474. The class given is cell-based. Particulars: Homo sapiens, 72 h, read-out: % cytotoxicity (100 − % cell survival) of BT474 cell line; for cytotoxicity at 0.005 µM: BT-474, 0.005 μM; for cytotoxicity at 0.015 µM: BT-474, 0.015 μM; for cytotoxicity at 0.045 µM: BT-474, 0.045 μM; for cytotoxicity at 0.13 µM: BT-474, 0.13 μM; for cytotoxicity at 0.41 µM: BT-474, 0.41 μM; for cytotoxicity at 1.23 µM: BT-474, 1.23 μM; for cytotoxicity at 3.7 µM: BT-474, 3.7 μM; for cytotoxicity at 11.11 µM: BT-474, 11.11 μM; for cytotoxicity at 33.33 µM: BT-474, 33.33 μM; for cytotoxicity at 100 µM: BT-474, 100 μM. How it is done: as §1, §2

Data set [3] can be described thus: In vitro cytotoxicity by MTT assay, NCI-H226. In kind it is cell-based. Particulars: human, NCI-H226 lung cancer cells, 0.015 μM, read-out: % Cytotoxicity (100 − % cell survival) of NCI-H226 cell line. The procedure:
as §1, §2

Data set [4] concerns NCI-H226 (lung cancer cell line). The experiment in a line: In vitro cytotoxicity by MTT assay, NCI-H226. In kind it is cell-based. Particulars: Homo sapiens, 72 h, read-out: % Cytotoxicity (100 − % cell survival) of NCI-H226 cell line; for cytotoxicity at 0.005 µM: NCI-H226, 0.005 μM; for cytotoxicity at 0.045 µM: NCI-H226, 0.045 μM; for cytotoxicity at 0.13 µM: NCI-H226, 0.13 μM; for cytotoxicity at 0.41 µM: NCI-H226, 0.41 μM; for cytotoxicity at 1.23 µM: NCI-H226, 1.23 μM; for cytotoxicity at 3.7 µM: NCI-H226, 3.7 μM; for cytotoxicity at 11.11 µM: NCI-H226, 11.11 μM; for cytotoxicity at 33.33 µM: NCI-H226, 33.33 μM; for cytotoxicity at 100 µM: NCI-H226, 100 μM. The procedure:
as §1, §2

Data set [5] has as its system root meristem cells of Allium cepa. Description: In vitro antimitotic activity and cytogenetic analysis, Allium cepa meristem root model. In kind it is cell-based. Particulars: compounds 1 mg/mL, PC (EMS) 2 × 10^−2 M. The procedure: Small bulbs (1.5–2.0 cm in diameter) of the common onion, A. cepa (2n = 16), were purchased from vendor at a local market. Prior to initiating the test, the outer scales of the bulbs and the dry bottom plate were removed without destroying the root primordia. The roots of A. cepa were grown in distilled water in Erlenmeyer flasks (200 mL capacity) under laboratory conditions (dark 24 °C). For each synthesized compound sample, after reaching a length of 3 cm (±0.5 cm), a series of six bulbs were placed in distilled water (pH 7.3) for 48 h and then onion roots were treated with the synthesized compound at 1 mg/mL concentrations of each tested compound. The test tubes were kept in an incubator at 22 ± 1 °C, and the test samples were changed daily at the same time. Several of the newly formed root tips were then cut from each bulb and examined for any visible morphological abnormalities. The bulbs with satisfactory root lengths (2–2.5 cm) were used in the study, while those with exceptionally long or short roots were discarded (on average 2–3 bulbs). Therefore, individual sets of five bulbs were used for each extract sample.
Distilled water (pH 7.3) was used as a negative control, and EMS (2 × 10^−2 M) used as a positive control mutagen (Fiskesjo, [1993], [1997]). After 24 h of exposure, several root tips were removed from the bulbs, fixed in 3:1 (v/v) ethanol (90 %)/glacial acetic acid (45 %) and stored overnight at 4 °C. The next day, they were placed in 70 % (v/v) aqueous alcohol and refrigerated until used. Allium roots were softened by digesting with HCl and rinsed the roots in water. After removing the water from the third rinse, the roots were covered with the orcein acetate stain. The roots were incubated in the stain for 12 min. During this time, the very tip of the root begins to turn red as the DNA stains the numerous small actively dividing cells at the tip. A root was transferred to the centre of a clean microscope slide, and a drop of water was added. Using a razor blade most of the unstained part of the root was cut off and discarded. The root tip was covered with a cover slip and then carefully pushed down on the cover slide with the wooden end of a dissecting probe. […] The root tip should spread out to a diameter about 0.5–1 cm. Five slides were prepared per bulb.
The following parameters were used for the determination of cytotoxicity and genotoxicity: • (i) the mitotic index (MI) was calculated as the ratio between the number of mitotic cells and the total number of cells scored and expressed as percentage using following formula as per standard procedures. Mitoticindex=Numberofdividingcells/Totalnumberofcells×100 • (ii) Chromatin aberrations (stickiness, breaks and polar deviation) were used as end points for the determination of cytogenetic effects, and micronuclei (MNC) were scored in interphase cells per 1,000 cells (‰ MNC) (Freshney, [2000]). • (iii) The most frequent abnormalities are shown in microphotographs. After 72 h of exposure to the test samples, the root lengths were measured and used as an index of general toxicity. The results for mitotic index and root length are expressed as percentage of the negative and positive controls. Visible morphological modifications, such as changes in root consistency and colour as well as the presence of swelling (c-tumours), hooks or twists in the roots, were also observed.

SMILES strings stand for the structures.

As to `Nc1nnc(S(=O)(=O)NC(=O)c2ccccc2N)s1` [Compound 4b], in data set [1], the cytotoxicity at 72 h, 0.005 µM is 41.5%; the cytotoxicity at 72 h, 0.015 µM was 47%; the cytotoxicity at 72 h, 0.045 µM was determined as 50.4%; the cytotoxicity at 72 h, 0.13 µM came out at 53.6%. Further, in data set [1], the cytotoxicity at 72 h, 0.41 µM turned out to be 57.6%; the cytotoxicity at 72 h, 1.23 µM was determined as 58.1%; the cytotoxicity at 72 h, 3.7 µM is 59.7%; the cytotoxicity at 72 h, 11.11 µM turned out to be 62.3%. Further, in data set [1], the cytotoxicity at 72 h, 33.33 µM is 63.1% and the cytotoxicity at 72 h, 100 µM amounted to 65.4%. In data set [2], the cytotoxicity at 0.005 µM came out at 16.2%, the cytotoxicity at 0.015 µM was 16.6%, the cytotoxicity at 0.045 µM was 17.4% and the cytotoxicity at 0.13 µM is 18%. Further, in data set [2], the cytotoxicity at 0.41 µM is 18.1%, the cytotoxicity at 1.23 µM turned out to be 19.9%, the cytotoxicity at 3.7 µM was 20.5% and the cytotoxicity at 11.11 µM was 22.2%. In addition, in data set [2], the cytotoxicity at 33.33 µM is 23.3% and the cytotoxicity at 100 µM was found to be 26.7%. Moreover, the cytotoxicity at 72 h, 0.015 µM in data set [3] is 32.9%. In addition, in data set [4], the cytotoxicity at 0.005 µM was 32.1%, the cytotoxicity at 0.045 µM was 33.5%, the cytotoxicity at 0.13 µM was 34% and the cytotoxicity at 0.41 µM was found to be 34.7%. Further, in data set [4], the cytotoxicity at 1.23 µM was 35.1%, the cytotoxicity at 3.7 µM was determined as 36%, the cytotoxicity at 11.11 µM was 36.3% and the cytotoxicity at 33.33 µM was determined as 37.2%. Also, the cytotoxicity at 100 µM in data set [4] worked out at 39.5%.
As for `Nc1ccc(C(=O)NS(=O)(=O)c2nnc(N)s2)cc1` [Compound 4c], in data set [1], the cytotoxicity at 72 h, 0.005 µM was 36.3%; the cytotoxicity at 72 h, 0.015 µM came to 37.9%; the cytotoxicity at 72 h, 0.045 µM stood at 38.2%; the cytotoxicity at 72 h, 0.13 µM is 39.1%. Besides, in data set [1], the cytotoxicity at 72 h, 0.41 µM was 39.9%; the cytotoxicity at 72 h, 1.23 µM stood at 40.7%; the cytotoxicity at 72 h, 3.7 µM stood at 42.1%; the cytotoxicity at 72 h, 11.11 µM came out at 46.5%. In addition, in data set [1], the cytotoxicity at 72 h, 33.33 µM turned out to be 47.8% and the cytotoxicity at 72 h, 100 µM was 49.1%. In data set [2], the cytotoxicity at 0.005 µM stood at 30.6%, the cytotoxicity at 0.015 µM came to 32.1%, the cytotoxicity at 0.045 µM is 34.2% and the cytotoxicity at 0.13 µM turned out to be 35.5%. For the same compound, in data set [2], the cytotoxicity at 0.41 µM was determined as 36.3%, the cytotoxicity at 1.23 µM was found to be 37.6%, the cytotoxicity at 3.7 µM was 38.8% and the cytotoxicity at 11.11 µM was found to be 39.4%. Besides, in data set [2], the cytotoxicity at 33.33 µM worked out at 40.3% and the cytotoxicity at 100 µM was 41.4%. In addition, in data set [3], the cytotoxicity at 72 h, 0.015 µM was 38.2%. In data set [4], the cytotoxicity at 0.005 µM stood at 37.6%, the cytotoxicity at 0.045 µM was found to be 38.9%, the cytotoxicity at 0.13 µM turned out to be 39.3% and the cytotoxicity at 0.41 µM amounted to 42.2%. In addition, in data set [4], the cytotoxicity at 1.23 µM was determined as 45.4%, the cytotoxicity at 3.7 µM came to 47.2%, the cytotoxicity at 11.11 µM worked out at 49.1% and the cytotoxicity at 33.33 µM is 51.2%. The cytotoxicity at 100 µM in data set [4] came out at 54.2%.
For the compound `CCOS(C)(=O)=O` [PC, Ethyl methanesulphonate, reference compound], in data set [5], the “Aberrant cells (%) ± SEM” value is recorded as 43.20 ± 7.10%, the “MNC (‰) ± SEM (micronuclei per 1,000 cells)” value was 0.59 ± 0.09 ‰, the “Polar deviations (%) ± SEM” value amounted to 12.36 ± 3.36% and the “Stickiness (%) ± SEM” value was 36.31 ± 9.84%. In addition, the “MI (%) ± SEM (mitotic index)” value in data set [5] (lower MI = higher activity, negative control 6.22) was determined as 1.86 ± 0.23%.

Source of the values: publication PMC3973950, “Synthesis of 5-arylidine amino-1,3,4-thiadiazol-2-[(N-substituted benzyol)]sulphonamides endowed with potent antioxidants and anticancer activity induces growth inhibition in HEK293, BT474 and NCI-H226 cells” (Medicinal Chemistry Research, 2013).
